The record followed here is PubChem BioAssay (NCI).

Each structure is given as a SMILES string.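 96-well plates; 48 h exposure; 5 concentrations. Endpoints by linear interpolation between flanking doses. Not reached: highest tested concentration assigned. Abbreviation: GI50, concentration required for 50% inhibition of growth. TGI: concentration producing complete growth inhibition.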

Common to all, as to assay: NCI anticancer screen, dose series, 48 h
Test [1] deals with HCT-116 colon.
For test [2], the system named is HT29 colon.
In test [3] the test system is K-562 leukemia.
The test system of test [4] is KM12 colon.
For test [5], the system named is NCI-H460 lung.
The subject of test [6] is PC-3 prostate.
Test [7] relates to SF-268 CNS.
Test [8] concerns SN12C renal.
Test [9] concerns SNB-19 CNS.
Test [10] deals with UO-31 renal.

Turning to `N#Cc1ccc(OC(=O)Nc2ccc(Cl)c(Cl)c2)cc1`, the GI50 in test [1] is 3.4 µM; in test [2], 3.35 µM; in test [3], 3.4 µM; in [4] it was 3.27 µM; in [5], 2.87 µM; in [6], 2.87 µM. Further, the GI50 was 5.27 µM in test [7], 3.09 µM in [8], 3.1 µM in test [9] and 2.99 µM in test [10]. The TGI was greater than 100 µM in [1]; 28.6 µM in [2]; greater than 100 µM in test [3]; 12.8 µM in [4]; 9.34 µM in test [5]; 21.6 µM in test [6]. The TGI in test [7] is greater than 100 µM; in test [8], 25.8 µM; in test [9], greater than 100 µM; in test [10], 24.8 µM.
For `CC/C=C/C/C=C/C/C=C/C/C=C/C/C=C/C/C=C/CCC(=O)Nc1ccn([C@@H]2O[C@H](CO)[C@@H](O)C2(F)F)c(=O)n1`, the GI50 was 0.0873 µM in test [1]; 0.138 µM in test [2]; 0.16 µM in [3]; 1.42 µM in [4]; 0.0199 µM in [5]; 6.65 µM in test [6]. Moreover, the GI50 in test [7] was 0.0631 µM; in [8] it was 0.126 µM; in test [9], 0.0278 µM; in test [10], 0.0486 µM. Also, the TGI in test [1] is 29.8 µM; in [2], 19.5 µM; in test [3] it was 33.4 µM; in test [4], 39.8 µM; in [5] it was 12.1 µM; in test [6], 52.3 µM. The TGI in [7] is 26.3 µM; in test [8], 8.78 µM; in [9] it was 26.6 µM; in [10], 4.28 µM.
Regarding `Nc1nc(N)c2cc(CNc3ccc(C(=O)NC(CC(=O)O)C(=O)O)c(Cl)c3)ccc2n1` (stereo not drawn), the GI50 was 0.05 µM in test [1]; 0.05 µM in test [2]; 0.05 µM in [3]; 0.05 µM in [5]; less than 0.01 µM in [6]; 0.189 µM in test [7]. Moreover, the GI50 in test [8] was 0.05 µM; in test [9] it was 0.05 µM; in [10] it was 0.244 µM. For the same molecule, the TGI in test [1] was greater than 500 µM; in test [2] it was greater than 500 µM; in test [3], greater than 500 µM; in [4], greater than 500 µM; in [5], 72.6 µM; in test [6], greater than 500 µM. Besides, the TGI in [8], in [9] and in [10] was greater than 500 µM each time.
Take `O=C(OCc1ccc2c(Cl)cc(Cl)c(O)c2n1)N1CCN(C(=O)c2cc3cc(F)ccc3[nH]2)CC1`: the GI50 in test [1] was 0.392 µM; in test [2], 62.7 µM; in [3], 0.825 µM; in [4] it was 0.58 µM; in test [5] it was 0.918 µM; in test [6], 1.59 µM. Further, the GI50 in test [7] is 1.56 µM; in [8] it was 1.15 µM; in [9], 4.13 µM; in [10], 2.59 µM. Also, the TGI in test [1] is greater than 100 µM; in test [2] it was greater than 100 µM; in [3], greater than 100 µM; in test [4] it was greater than 41.3 µM; in test [5], greater than 100 µM; in test [6] it was greater than 100 µM. The TGI in test [7], in test [8], in test [9] and in [10] was greater than 100 µM each time.
Take `NC(=S)N/N=C/c1cc(-c2cccc(N)c2)ccn1`: the GI50 in test [1] is 1.99 µM; in [2], 3.72 µM; in test [3], 0.541 µM; in test [4], 1.11 µM; in test [5], 1.07 µM; in [6] it was 1.07 µM. Also, the GI50 was 1.02 µM in test [7], 2.52 µM in test [8], 4.24 µM in test [9] and 0.907 µM in test [10]. Besides, the TGI in test [1] is 27.3 µM; in test [2], greater than 100 µM; in test [3], greater than 100 µM; in [4] it was greater than 41.2 µM; in test [5] it was 7.27 µM; in test [6], greater than 100 µM. Further, the TGI in test [7] was greater than 70.7 µM; in [8] it was greater than 100 µM; in [9], greater than 100 µM; in [10], 8.69 µM.
For the molecule `Cn1c(=O)c2c(ncn2CC(=O)Nc2ccc(-c3ccccc3)nn2)n(C)c1=O`, the GI50 in test [1], in test [2], in test [3], in [4], in test [5] and in test [6] was greater than 100 µM in each case. The GI50 in test [7], in test [8], in test [9] and in test [10] was greater than 100 µM throughout. In addition, the TGI in [1], in [2], in test [3], in test [4], in test [5] and in test [6] was greater than 100 µM throughout. Moreover, the TGI in test [7], in [8], in test [9] and in test [10] was greater than 100 µM each time.
For the molecule `O=C(O)C12CC3(C(=O)O)CC(C(=O)O)(CC(C(=O)O)(C1)C3=O)C2=O`, the TGI in test [1], in test [2], in test [3], in test [4], in [5] and in test [6] was greater than 100 µM each time. Further, the TGI in [7], in test [8], in test [9] and in test [10] was greater than 100 µM throughout.
As to `CC[C@@]1(O)C(=O)OCc2c1cc1n(c2=O)Cc2c-1nc1cc(F)c(C)c3c1c2[C@@H](N)CC3`, the GI50 in test [1] was less than 0.01 µM; in test [2] it was less than 0.01 µM; in [3], less than 0.0117 µM; in test [4], 0.0203 µM; in [5], less than 0.01 µM; in test [6], 0.02 µM. Further, the GI50 in [7], in test [8], in test [9] and in test [10] was less than 0.01 µM each time. Moreover, the TGI in test [1] is 12.3 µM; in [2], greater than 100 µM; in test [3], greater than 100 µM; in [4], 24.7 µM; in [5] it was greater than 33.7 µM; in test [6], greater than 100 µM. The TGI in [7] is 2.17 µM; in test [8], greater than 100 µM; in test [9] it was greater than 100 µM; in test [10] it was 0.108 µM.
